Experimental data as given in patent publication US11787810B2, “Diacylglyceride O-acyltransferase 2 inhibitors” (Merck Sharp & Dohme Corp., priority 2020, dated 2023).

Molecular target: human DGAT2 (hDGAT2) (Homo sapiens (Human), UniProt Q96PD7)
Assay: DGAT2 enzymatic activity assay (13C18-triolein formation, LC/MS/MS)
Assay type: biochemical
Conditions: hDGAT2 Sf-9 membrane prep, 25 μM diolein, 5 μM 13C oleoyl-CoA; read-out: Human DGAT2 IC50
Protocol: Sf-9 insect cells were maintained in Grace's insect cell culture medium with 10% heated-inactivated fetal bovine serum, 1% Pluronic F-68 and 0.14 μg/ml Kanamycine sulfate at 27° C. in a shaker incubator. After infection with untagged baculovirus expressing human DGAT2 (hDGAT2) at multiplicity of infection (MOI) 3 for 48 hours, cells were harvested. Cell pellets were suspended in buffer containing 10 mM Tris-HCl pH 7.5, 1 mM EDTA, 250 mM sucrose and Complete Protease Inhibitor Cocktail (Sigma Aldrich), and sonicated on ice. Cell debris were removed by centrifugation at 2000×g for 15 minutes. Membrane fractions were isolated by ultracentrifugation (100,000×g), resuspended in the same buffer, and frozen (−80° C.) for later use. The protein concentration was determined with the Pierce™ BCA Protein Assay Kit (Thermo Fisher Scientific). Expression of protein levels was analyzed by immunoblotting with rabbit anti-DGAT2 antibody (Abcam, ab102831) and donkey anti-rabbit IgG H&L Alexa Fluor® 647 (Abcam, ab150075) followed by detection using Typhoon FLA9000 (GE Healthcare).
LC/MS/MS analyses were performed using Thermal Fisher's LX4-TSQ Vantage system. This system consists of an Agilent binary high-performance liquid chromatography (HPLC) pumps and a TSQ Vantage triple quadrupole MS/MS instrument. For each sample, 2 μL samples from the top organic layer of in-plate liquid-liquid extraction were injected onto a Thermo Betabasic C4 column (2.1 mm×20 mm, 5 μm particle size). The samples were then eluted using the following conditions; mobile phase: Isopropanol:acetonitrile/10 mM ammonium formate=50/35/15 (v/v/v), flow rate: 0.8 mL/min, temperature: 25° C. Data was acquired in positive mode using a heated electrospray ionization (HESI) interface. The operational parameters for the TSQ Vantage MS/MS instrument were a spray voltage of 3000 V, capillary temperature of 280° C., vaporizer temperature 400° C., sheath gas 45 arbitrary unit, Aux gas 10 arbitrary units, S-lens 165 and collision gas 1.0 mTorr. […] (SRM) chromatograms of ^13C18-triolein (Q1: 920.8>Q3:621.3) and internal standard ^13C21-triolein (Q1: 923.8>Q3:617.3) were collected for 33 sec. The peak area was integrated by Xcalibur Quan software. The ratio between the ^13C18triolein generated in the reaction and spiked in internal standard ^13C21-triolein was used to generate percentage inhibition and IC50 values. Compound percentage inhibition was calculated by the following formula: Inhibition %=1-[(compound response−low control)/(high control−low control)]×100%. Potent compounds were titrated and IC50 were calculated by 4 parameter sigmoidal curve fitting formula.
DGAT2 activity was determined by measuring the amount of enzymatic product ^13C18-triolein (^13C-1,2,3-Tri(cis-9-octadecenoyl)glycerol) using the membrane prep mentioned above. The assay was carried out in ABgene 384-well assay plates in a final volume of 25 μL at rt. The assay mixture contained the following: assay buffer (100 mM Tris·Cl, pH 7.0, 20 mM MgCl2, 5% ethanol), 25 μM of diolein, 5 μM of ^13C oleoyl-CoA and 8 ng/μL of DGAT2 membrane.

Chain of human DGAT2 (hDGAT2) (Q96PD7 whole entry): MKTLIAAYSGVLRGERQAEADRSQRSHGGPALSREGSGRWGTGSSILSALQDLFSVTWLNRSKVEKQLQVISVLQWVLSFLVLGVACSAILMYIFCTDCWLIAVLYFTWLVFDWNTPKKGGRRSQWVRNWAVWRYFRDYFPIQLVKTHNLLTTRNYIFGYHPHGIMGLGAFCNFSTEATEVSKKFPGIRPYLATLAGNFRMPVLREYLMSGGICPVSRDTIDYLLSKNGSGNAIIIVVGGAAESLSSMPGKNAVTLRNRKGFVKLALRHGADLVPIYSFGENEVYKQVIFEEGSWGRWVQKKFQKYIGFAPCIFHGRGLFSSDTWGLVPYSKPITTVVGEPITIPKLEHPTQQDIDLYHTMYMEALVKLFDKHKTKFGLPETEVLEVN

| SMILES | IC50 [µM] |
| --- | --- |
| CC1(NC(=O)c2cnc3c(-c4cccc(OC(F)F)c4)nn(CC(O)C(F)(F)F)c3c2)CS(=O)(=O)C1 (single isomer, unassigned) [Example 67b, 3-(3-(difluoromethoxy)phenyl)-N-(3-methyl-1,1-dioxidothietan-3-yl)-1-(3,3,3-trifluoro-2-hydroxypropyl)-1H-pyrazolo[4,3-b]pyridine-6-carboxamide] | 0.09 |
| CC(O)Cn1nc(-c2cccc(OC(F)F)c2)c2ncc(C(=O)NC3(C)CS(=O)(=O)C3)cc21 (single isomer, unassigned) [Example 68a, 3-(3-(difluoromethoxy)phenyl)-1-(2-hydroxypropyl)-N-(3-methyl-1,1-dioxidothietan-3-yl)-1H-pyrazolo[4,3-b]pyridine-6-carboxamide] | 0.018 |
| CC(O)Cn1nc(-c2cccc(OC(F)F)c2)c2ncc(C(=O)NC3(C)CS(=O)(=O)C3)cc21 (single isomer, unassigned) [Example 68b, 3-(3-(difluoromethoxy)phenyl)-1-(2-hydroxypropyl)-N-(3-methyl-1,1-dioxidothietan-3-yl)-1H-pyrazolo[4,3-b]pyridine-6-carboxamide] | 0.179 |
| CC(C)n1nc(-c2cccc(OC(F)F)c2)c2ncc(C(=O)NC3(C(C)O)CCOCC3)cc21 (single isomer, unassigned) [Example 73a, 3-(3-(difluoromethoxy)phenyl)-N-(4-(1-hydroxyethyl)tetrahydro-2H-pyran-4-yl)-1-isopropyl-1H-pyrazolo[4,3-b]pyridine-6-carboxamide] | 0.119 |
| CC(C)n1nc(-c2cccc(OC(F)F)c2)c2ncc(C(=O)NC3(C(C)O)CCOCC3)cc21 (single isomer, unassigned) [Example 73b, 3-(3-(difluoromethoxy)phenyl)-N-(4-(1-hydroxyethyl)tetrahydro-2H-pyran-4-yl)-1-isopropyl-1H-pyrazolo[4,3-b]pyridine-6-carboxamide] | 0.074 |
| CC1(NC(=O)c2cnc3c(-c4cccc(OC(F)F)c4)nn(C4CCOCC4F)c3c2)CS(=O)(=O)C1 (single isomer, unassigned) [Example 75a, 3-(3-(difluoromethoxy)phenyl)-1-(3-fluorotetrahydro-2H-pyran-4-yl)-N-(3-methyl-1,1-dioxidothietan-3-yl)-1H-pyrazolo[4,3-b]pyridine-6-carboxamide] | 0.029 |
| CC1(NC(=O)c2cnc3c(-c4cccc(OC(F)F)c4)nn(C4CCOCC4F)c3c2)CS(=O)(=O)C1 (single isomer, unassigned) [Example 75b, 3-(3-(difluoromethoxy)phenyl)-1-(3-fluorotetrahydro-2H-pyran-4-yl)-N-(3-methyl-1,1-dioxidothietan-3-yl)-1H-pyrazolo[4,3-b]pyridine-6-carboxamide] | 0.009 |
| CC1(NC(=O)c2cnc3c(-c4cccc(OC(F)F)c4)nn(C4CCOC(C(F)(F)F)C4)c3c2)CS(=O)(=O)C1 (single isomer, unassigned) [Example 76a, 3-(3-(difluoromethoxy)phenyl)-N-(3-methyl-1,1-dioxidothietan-3-yl)-1-(2-(trifluoromethyl)tetrahydro-2H-pyran-4-yl)-1H-pyrazolo[4,3-b]pyridine-6-carboxamide] | 0.021 |
| CC1(NC(=O)c2cnc3c(-c4cccc(OC(F)F)c4)nn(C4CCOC(C(F)(F)F)C4)c3c2)CS(=O)(=O)C1 (single isomer, unassigned) [Example 76b, 3-(3-(difluoromethoxy)phenyl)-N-(3-methyl-1,1-dioxidothietan-3-yl)-1-(2-(trifluoromethyl)tetrahydro-2H-pyran-4-yl)-1H-pyrazolo[4,3-b]pyridine-6-carboxamide] | 0.211 |
| CC1(NC(=O)c2cnc3c(-c4cccc(OC(F)F)c4)nn(C4CCOC(C)(C)C4)c3c2)CS(=O)(=O)C1 (single isomer, unassigned) [Example 77a, 3-(3-(difluoromethoxy)phenyl)-1-(2,2-dimethyltetrahydro-2H-pyran-4-yl)-N-(3-methyl-1,1-dioxidothietan-3-yl)-1H-pyrazolo[4,3-b]pyridine-6-carboxamide] | 0.14 |
| CC1(NC(=O)c2cnc3c(-c4cccc(OC(F)F)c4)nn(C4CCOC(C)(C)C4)c3c2)CS(=O)(=O)C1 (single isomer, unassigned) [Example 77b, 3-(3-(difluoromethoxy)phenyl)-1-(2,2-dimethyltetrahydro-2H-pyran-4-yl)-N-(3-methyl-1,1-dioxidothietan-3-yl)-1H-pyrazolo[4,3-b]pyridine-6-carboxamide] | 0.0074 |
| CC(O)C(C)n1nc(-c2cccc(OC(F)F)c2)c2ncc(C(=O)NC3(C)CS(=O)(=O)C3)cc21 (single isomer, unassigned) [Example 78a, 3-(3-(difluoromethoxy)phenyl)-1-(3-hydroxybutan-2-yl)-N-(3-methyl-1,1-dioxidothietan-3-yl)-1H-pyrazolo[4,3-b]pyridine-6-carboxamide] | 1.73 |
| CC(O)C(C)n1nc(-c2cccc(OC(F)F)c2)c2ncc(C(=O)NC3(C)CS(=O)(=O)C3)cc21 (single isomer, unassigned) [Example 78b, 3-(3-(difluoromethoxy)phenyl)-1-(3-hydroxybutan-2-yl)-N-(3-methyl-1,1-dioxidothietan-3-yl)-1H-pyrazolo[4,3-b]pyridine-6-carboxamide] | 0.0044 |
| CC(O)C(C)n1nc(-c2cccc(OC(F)F)c2)c2ncc(C(=O)NC3(C)CS(=O)(=O)C3)cc21 (single isomer, unassigned) [Example 78c, 3-(3-(difluoromethoxy)phenyl)-1-(3-hydroxybutan-2-yl)-N-(3-methyl-1,1-dioxidothietan-3-yl)-1H-pyrazolo[4,3-b]pyridine-6-carboxamide] | 0.121 |
| CC(O)C(C)n1nc(-c2cccc(OC(F)F)c2)c2ncc(C(=O)NC3(C)CS(=O)(=O)C3)cc21 (single isomer, unassigned) [Example 78d, 3-(3-(difluoromethoxy)phenyl)-1-(3-hydroxybutan-2-yl)-N-(3-methyl-1,1-dioxidothietan-3-yl)-1H-pyrazolo[4,3-b]pyridine-6-carboxamide] | 0.047 |

Other lines, results leading:

| IC50 [µM] | SMILES |
| --- | --- |
| 0.07 | CC1(C#N)CC(n2nc(-c3cccc(OC(F)F)c3)c3ncc(C(=O)NC4(C)CS(=O)(=O)C4)cc32)C1 (single isomer, unassigned) [Example 87a, 1-(3-cyano-3-methylcyclobutyl)-3-(3-(difluoromethoxy)phenyl)-N-(3-methyl-1,1-dioxidothietan-3-yl)-1H-pyrazolo[4,3-b]pyridine-6-carboxamide] |
| 0.27 | CC1(C#N)CC(n2nc(-c3cccc(OC(F)F)c3)c3ncc(C(=O)NC4(C)CS(=O)(=O)C4)cc32)C1 (single isomer, unassigned) [Example 87b, 1-(3-cyano-3-methylcyclobutyl)-3-(3-(difluoromethoxy)phenyl)-N-(3-methyl-1,1-dioxidothietan-3-yl)-1H-pyrazolo[4,3-b]pyridine-6-carboxamide] |

Same assay, conditions: table head without 'Human'; same membrane assay; read-out: DGAT2 IC50

| IC50 [µM] | SMILES |
| --- | --- |
| 0.0028 | CC(n1nc(-c2cccc(OC(F)F)c2)c2ncc(C(=O)NC3(C)CS(=O)(=O)C3)cc21)C(C)(C)O (single isomer, unassigned) [Example 130a, 3-(3-(difluoromethoxy)phenyl)-1-(3-hydroxy-3-methylbutan-2-yl)-N-(3-methyl-1,1-dioxidothietan-3-yl)-1H-pyrazolo[4,3-b]pyridine-6-carboxamide] |
| 0.08 | CC(n1nc(-c2cccc(OC(F)F)c2)c2ncc(C(=O)NC3(C)CS(=O)(=O)C3)cc21)C(C)(C)O (single isomer, unassigned) [Example 130b, 3-(3-(difluoromethoxy)phenyl)-1-(3-hydroxy-3-methylbutan-2-yl)-N-(3-methyl-1,1-dioxidothietan-3-yl)-1H-pyrazolo[4,3-b]pyridine-6-carboxamide] |
| 0.011 | CC(n1nc(-c2cc(OC(F)F)ccc2F)c2ncc(C(=O)NC3(C)CS(=O)(=O)C3)cc21)C(C)(C)O (single isomer, unassigned) [Example 131a, 3-(5-(difluoromethoxy)-2-fluorophenyl)-1-(3-hydroxy-3-methylbutan-2-yl)-N-(3-methyl-1,1-dioxidothietan-3-yl)-1H-pyrazolo[4,3-b]pyridine-6-carboxamide] |
